PMC13489962, “Small-molecule modulation of β-arrestins” (Nature, 2026)
Several values for one entry are separate records, joined by “and”; a condition that tells them apart may be missing. Equal entries are not always repeated.

What was measured:
βARR1 = molecular target: T1, βARR1 (Rattus norvegicus, UniProt P29066); test: ITC binding to βARR1; settings: for Kd: one-site model
T1 construct: βARR1 or βARR2 construct, with their C terminus truncated (at amino acid 393 or 394, respectively); GST (pGEX4T1) (N, cleaved yes); made in house; host or cells: E. coli BL21 (DE3) pLysS
Protocol: The expression and purification of β-arrestins have been described previously[44],[62]–[64]. In brief, E. coli BL21 (DE3) pLysS cells (New England Biolabs: C2527I) carrying pGEX4T1-Rattus norvegicus βARR1 or βARR2 construct, with their C terminus truncated (at amino acid 393 or 394, respectively), were cultured in Terrific Broth (Teknova) medium at 37 °C. After OD600 reached 0.6–0.8, the cells were induced with 0.1 mM isopropyl-β-D-thiogalactopyranoside (IPTG) at 18 °C overnight. Bacteria were collected by centrifugation (4,000 rpm), and cell pellets were resuspended in lysis buffer (20 mM HEPES, pH 8, 150 mM NaCl, 10% glycerol, 1 mM EDTA, 0.2 mM dithiothreitol (DTT), 1 mM phenylmethylsulfonyl fluoride, and 1 mM benzamidine) at 4 °C for 1 h. Cell suspensions were sonicated, centrifuged (14,000 rpm, 30 min, 4 °C), and the supernatant was loaded onto pre-equilibrated glutathione–agarose resin (GoldBio). After 3 h of binding at 4 °C, the beads were washed, and thrombin was added for overnight cleavage. The proteins were further purified by anion exchange chromatography followed by size-exclusion chromatography using a Superdex 200 Increase 10/300 GL column on an ÄKTA FPLC system (GE Healthcare). Eluted fractions were analysed by SDS–PAGE, pooled, concentrated using 30 kDa MWCO Amicon Ultra-15 Centrifugal Filter devices, flash-frozen in liquid nitrogen, and stored in aliquots at −80 °C. The same rat βARR1 constructs with mutations (L129A, L129S, L129G, P131A, P133A, E134A, D135A, K138A, C140A, Y249A, C251A, E283A, K284A and R285A) were generated and purified in a similar manner. Recombinant Gα subunits (Gαs, Gαq and Gαi) were purified as GST fusion proteins using glutathione–agarose affinity chromatography as previously described. The heterotrimeric Gs protein complex, composed of Gαs, Gβ1 and Gγ2 subunits, was expressed in Sf9 cells using the baculovirus expression system and purified as previously described. M2R expression, purification and reconstitution into high-density lipoprotein (HDL) particles were performed as previously described. ERK2, SRC, p38α and JNK3 kinases were expressed and purified using previously established protocols[6],[16]. Protein concentrations for each protein were determined by ultraviolet absorption at 280 nm and extinction coefficients estimated using the ExPASy ProtParam tool[67].
ITC measurements were performed on a MicroCal iTC200 system at 25 °C. Prior to ITC experiments, all proteins (βARR1, βARR2 or βARR1 mutants) were extensively dialysed against 20 mM HEPES (pH 7.4), 100 mM NaCl, and 3 μM TCEP. Protein concentrations were determined by spectrophotometry at 280 nm, using extinction coefficients calculated from each protein sequence via the ProtParam program. The dialysis buffer was used to dilute DMSO stock solutions of β-arrestin small-molecule modulators to their final concentrations for measurements. For each ITC experiment, β-arrestin modulators (Cmpd-5 at 350 μM, Cmpd-46 at 450 μM, and Cmpd-64 at 450 μM) were loaded into the syringe and titrated into the calorimetric cell containing βARR1, βARR1 mutants or βARR2 (at about 30–40 μM, depending on the protein and experiment). Additional ITC experiments were also performed using purified GST-fused Gα subunits (Gαs, Gαq and Gαi; about 30 μM) and Gαiβγ heterotrimer (about 30 μM). Gα subunits were prepared in the same buffer (20 mM HEPES, pH 7.4, 100 mM NaCl, 3 μM TCEP), whereas the Gαiβγ heterotrimer was maintained in buffer supplemented with 0.05% DDM and 10 μM GDP, with matched DMSO carrier conditions. Modulators (300 μM) or corresponding DMSO controls were loaded and titrated as described above. The reference cell was filled with distilled water. In all experiments, the titration sequence typically consisted of an initial 0.4 μl injection, followed by 19 injections of 2 μl each, with a 180-s interval between injections to allow thermal power to return to baseline. […]

M2R–Gi = test: TRUPATH BRET2 Gα–Gβγ dissociation, M2R–Gi; assay type: cell-based, human; settings: 50 μM, 15 min; ACh; βarr1/2 KO cells
Protocol: TRUPATH assays[73] were performed in HEK293 βARR1/2-knockout cells transiently transfected using FuGENE4K with a total of 4 μg per 15 cm dish plasmid DNA, including pcDNA3.1 constructs encoding human GPCRs (β2AR, AT1R, M2R or NTSR1), Gα–RLuc8, Gβ3 and Gγ9–GFP2 at a 1:1:1:1 ratio. TRUPATH components were obtained from B. Roth via Addgene (1000000163). Twenty-four hours after transfection, cells were replated into poly-D-lysine-coated 96-well white, clear-bottom plates at 20,000–30,000 cells per well in phenol red-free DMEM supplemented with 2% FBS. BRET signals were acquired 48 h after transfection. On the day of the assay, cells were washed and incubated in HBSS containing 20 mM HEPES (pH 7.4). Modulators were applied at 50 μM for 15 min, followed by addition of Prolume Purple substrate (Nanolight Technologies). Cells were then stimulated with increasing concentrations of agonist (angiotensin II, neurotensin, isoproterenol or acetylcholine). BRET2 was recorded in kinetic mode for 30 min using a CLARIOstar Plus plate reader (480 nm/510 nm), and peak signals were used for quantification. ΔNet BRET ratios were calculated by subtracting the BRET ratio of the vehicle-treated control from each condition, agonist alone or agonist plus modulator. […]

D2R–Gi = test: TRUPATH BRET2 Gα–Gβγ dissociation, D2R–Gi; assay type: cell-based; settings: 50 μM; quinpirole; βarr1/2 KO cells

T1 sequence (P29066 1-393): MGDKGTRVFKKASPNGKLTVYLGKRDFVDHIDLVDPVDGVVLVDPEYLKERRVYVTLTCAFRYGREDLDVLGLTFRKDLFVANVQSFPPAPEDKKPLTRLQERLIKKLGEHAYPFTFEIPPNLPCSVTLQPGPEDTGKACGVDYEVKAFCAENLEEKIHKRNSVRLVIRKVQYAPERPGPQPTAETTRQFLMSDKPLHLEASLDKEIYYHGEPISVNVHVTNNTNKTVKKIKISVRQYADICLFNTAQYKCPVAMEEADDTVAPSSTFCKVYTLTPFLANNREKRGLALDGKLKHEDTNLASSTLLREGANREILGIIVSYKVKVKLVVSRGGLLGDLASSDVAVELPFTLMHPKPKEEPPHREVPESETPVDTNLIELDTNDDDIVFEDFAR

Row | SMILES | stoichiometry N, βARR1 (βARR1) | ΔH, βARR1 wild type (βARR1; 25 °C) [kcal/mol] | Kd (βARR1; 25 °C) | mean fractional decrease vs DMSO in maximal Gα–Gβγ dissociation, M2R (M2R–Gi) | mean fractional decrease vs DMSO in maximal Gα–Gβγ dissociation, D2R (D2R–Gi)
1 | C=C1C(=O)[C@]23[C@H](O)[C@H]1CC[C@H]2[C@@]12CO[C@]3(O)[C@@H](O)[C@@H]1C(C)(C)CC[C@@H]2O [Cmpd-5, (1S,4aR,5S,6S,6aR,9S,11aS,11bS,14R)-1,5,6,14-tetrahydroxy−4,4-dimethyl-8-methylenedecahydro-1H-6,11b-(epoxymethano)-6a,9-methanocyclohepta[a]naphthalen-7(8H)-one] | 1 | -13.4 | ~400 nM and 362 nM | – | –
2 | C=C1C(=O)C2=CC1CCC(=O)C1(C)CCC(OCC)C(C)(C)C1CC2O (centres unmarked) [Cmpd-46, (Z)-3-ethoxy-6-hydroxy-4,4,13a-trimethyl-9-methylene-1,2,3,4,4a,5,6,9,10,11,12,13a-dodecahydro-7,10-(metheno)benzo[11]annulene-8,13-dione] | 1.2 | – | 1340 ± 740 nM | −0.32 | −0.18
3 | C=C1C(=O)OC2CC3(C)OC3CCC(C)=CC(OC(C)=O)C12 (centres unmarked) [Cmpd-64, (Z)-4,10a-dimethyl-7-methylene-8-oxo-1a,2,3,6,6a,7,8,9a,10,10a decahydrooxireno[2’,3’:8,9]cyclodeca[1,2-b]furan-6-yl acetate] | 0.73 | – | 1420 ± 200 nM | −0.38 | −0.27
